Measurements as given in US10881653B2, “Tricyclic compounds and their use in the treatment of cancer” (The United States of America, as represented by the …, priority 2015, dated 2021).
pIC50: −log10 of the molar value. Where a name gives a salt, the structure may show the parent alone.

Key:
[1] = target: T1, gluthathione reductase (GR) (Homo sapiens, UniProt P00390); experiment: Inhibition of recombinant GR (GSSG assay); type: biochemical; settings: Biological Example 4; assays of Biological Example 1
T1 sequence (P00390 44-522): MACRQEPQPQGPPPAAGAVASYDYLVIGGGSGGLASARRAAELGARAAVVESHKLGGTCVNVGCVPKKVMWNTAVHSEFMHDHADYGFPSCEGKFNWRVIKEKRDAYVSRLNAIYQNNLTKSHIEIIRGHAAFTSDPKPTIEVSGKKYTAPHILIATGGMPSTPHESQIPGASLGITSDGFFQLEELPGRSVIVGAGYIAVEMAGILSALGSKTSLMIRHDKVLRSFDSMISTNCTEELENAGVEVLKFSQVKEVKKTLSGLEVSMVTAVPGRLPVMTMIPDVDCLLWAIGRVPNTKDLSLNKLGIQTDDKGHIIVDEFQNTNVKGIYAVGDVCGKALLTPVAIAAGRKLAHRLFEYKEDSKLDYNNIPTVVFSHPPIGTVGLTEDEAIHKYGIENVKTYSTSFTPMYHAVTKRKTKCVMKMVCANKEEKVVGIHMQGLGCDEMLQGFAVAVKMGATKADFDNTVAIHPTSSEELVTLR
Outline: (§1)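 Human TrxR1 (15 nM) or GR (2 nM) preincubated 15 min with compound, 250 μM NADPH, 0.1 mg/ml BSA in 50 mM Tris pH 7.5, 2 mM EDTA, 1% DMSO. Reaction started with 2.5 mM DTNB (TrxR1, A412) or 1 mM GSSG (GR, A340). Percent activity relative to DMSO and no-enzyme blanks.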

[2] = target: T2, recombinant thioredoxin reductase 1 (TrxR1) (Homo sapiens, UniProt Q16881); experiment: Inhibition of recombinant TrxR1 (DTNB assay); type: biochemical; settings: Biological Example 4; assays of Biological Example 1; read-out: TrxR Inhibition
T2 sequence (Q16881 1-649): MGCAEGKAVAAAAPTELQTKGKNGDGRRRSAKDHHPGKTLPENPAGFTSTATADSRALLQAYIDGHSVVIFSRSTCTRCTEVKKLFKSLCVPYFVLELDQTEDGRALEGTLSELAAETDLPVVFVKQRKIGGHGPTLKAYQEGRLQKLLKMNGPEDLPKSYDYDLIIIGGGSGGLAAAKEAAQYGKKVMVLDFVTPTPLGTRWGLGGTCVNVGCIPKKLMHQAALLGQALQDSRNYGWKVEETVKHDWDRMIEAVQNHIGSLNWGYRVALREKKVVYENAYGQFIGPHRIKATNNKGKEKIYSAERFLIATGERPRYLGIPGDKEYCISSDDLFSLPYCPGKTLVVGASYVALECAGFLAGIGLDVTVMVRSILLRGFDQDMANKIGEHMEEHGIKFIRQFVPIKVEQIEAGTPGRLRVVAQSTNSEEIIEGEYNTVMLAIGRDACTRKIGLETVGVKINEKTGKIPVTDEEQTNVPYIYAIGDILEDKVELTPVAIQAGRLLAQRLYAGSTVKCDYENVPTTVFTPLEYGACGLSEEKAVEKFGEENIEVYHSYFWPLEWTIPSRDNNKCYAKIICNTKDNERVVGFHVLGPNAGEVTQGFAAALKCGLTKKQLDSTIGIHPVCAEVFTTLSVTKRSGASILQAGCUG
Outline: as §1

## CC(c1ccccc1)N1C2C=CC(=O)C1C1C(=O)N(c3ccccc3)C(=O)C12 (stereo not drawn) [Example 5, 4-Phenyl-11-(1-phenylethyl)-4,11-diazatricyclo[5.3.1.0^2,6]undec-9-ene-3,5,8-trione Trifluoroacetate]
[1]
  pIC50: < 4.00
[2]
  pIC50: 5.60

## Cc1cccc(CN2C3C=CC(=O)C2C2C(=O)N(c4ccccc4)C(=O)C23)c1F (stereo not drawn) [Example 35, exo-11-(2-Fluoro-3-methylbenzyl)-4-phenyl-4,11-diazatricyclo[5.3.1.0^2,6]-undec-9-ene-3,5,8-trione Trifluoroacetate]
[1]
  pIC50: < 4.00
[2]
  pIC50: 5.97

## COC(=O)c1cccc(CN2[C@@H]3C(=O)C=C[C@H]2[C@H]2C(=O)N(c4ccccc4)C(=O)[C@H]23)c1 (relative stereo) [Example 45, endo-Methyl 3-((3,5,10-trioxo-4-phenyl-4,11-diazatricyclo[5.3.1.0^2,6]undec-8-en-11-yl)methyl)benzoate]
[1]
  pIC50: < 4.00
[2]
  pIC50: 5.85

## O=C1C=CC2C3C(=O)N(c4ccccc4)C(=O)C3C1N2Cc1cccc(Cl)c1 (stereo not drawn) [Example 41, endo-11-(3-Chlorobenzyl)-4-phenyl-4,11-diazatricyclo[5.3.1.0^2,6]undec-9-ene-3,5,8-trione Trifluoroacetate]
[1]
  pIC50: 4.31
[2]
  pIC50: 5.63

## N#Cc1cccc(CN2C3C=CC(=O)C2C2C(=O)N(c4ccccc4)C(=O)C23)c1 (stereo not drawn) [Example 36, 3-((4-Phenyl-3,5,10-trioxo-4,11-diazatricyclo[5.3.1.0^2,6]undec-8-en-11-yl)-methyl)benzonitrile Trifluoroacetate]
[1]
  pIC50: 4.16
[2]
  pIC50: 5.83

## O=C1C=CC2C3C(=O)N(c4ccccc4)C(=O)C3C1N2Cc1cccc(C(F)(F)F)c1 (stereo not drawn) [Example 32, 4-Phenyl-11-(3-trifluorobenzyl)-4,11-diazatricyclo[5.3.1.0^2,6]undec-9-ene-3,5,8-trione Trifluoroacetate]
[1]
  pIC50: 4.45
[2]
  pIC50: 5.84
